Key:
[1] = tested on: phospho-STAT panel (pSTAT3/4/5), CD3+ T cells; assay: phospho-STAT induction by IL-6, MesoScale Discovery phospho-STAT panel; format: cell-based, human; conditions: for pSTAT3 / pSTAT4 / pSTAT5: CD3+ T cells
Experimental: CD19 CAR-T, PBMC or CD3+ T cells (AllCells) were thawed and rested 0/N at 37° C. in R10 media. Cells were seeded at 700,000 cells/well and were either untreated or treated with 100 ng/ml IL6+drug at indicated concentrations for 20 minutes at 37° C. The cells were then washed with cold PBS and followed by 60 μl of Tris lysis buffer (provided by MSD) for 30 minutes on ice. Lysates were collected by spin down for 10 minutes at >10,000 rpm. 25 μl/well per condition was used for MesoScale Discovery (MSD) assay using the phospho-STAT panel (pSTAT3/4/5) from MesoScale Discovery following the manufacturer's protocol. pSTAT panel plates were blocked with 150 μl of blocker A solution for 1 hr at RT with shaking. Plates were washed three times with 1× Tris wash buffer. 25 μl of lysate samples were added per well, incubated 2 hr at room temperature or at 4° C. overnight. Plates were washed 3 times with 1× tris wash buffer and then 25 μl of detection antibody solution were added to each well and incubated for 1 hr at room temperature with shaking. Plates were washed and 1× read buffer added to each well and plates were read on the MSD instrument.

in vitro = conditions: human
Experimental: 96-well plates were coated with 100 μl of KIP-1 antibody per well at 1 μg/ml in PBS and plates were incubated at 4° C. overnight. CAR-T cells were thawed and were rested in ImmunoCult expansion medium and incubated overnight at 37° C. Cells were then counted and resuspended at 2 million cells/ml and seed at 200,000 cells per well in 100 μl of expansion medium with 10 ng/ml recombinant IL2. For groups treated with KIP-1, 100 μl of expansion medium were added with 2× final drug dilutions. For CD3/CD28 treated groups, 100 μl of expansion media were added with 2× final drug dilutions containing 25 μl/ml of CD3/CD28 T cell activator from StemCell Technologies. Cells were then incubated at 37° C. After 4 days, cells were counted and diluted 1 to 8-fold in expansion media and then transferred to a 24-well plate. Cell counts were repeated at day 7 and transferred to T25 flasks. On day 11, all cells were harvested and counted.

[2] = tested on: NALM6.GFP.LUC.CD19 target cells; assay: Serial killing assay of CAR-T, percent cytotoxicity by luciferase detection; conditions: two different E:T ratios, dose titration
Experimental: The percent cytotoxicity to NALM6.GFP.LUC.CD19 target cells was measured by luciferase detection at each round.
In one embodiment, a serial killing assay is a combination of cell killing and how long it takes for CAR T cells to get exhausted under repeated stimulation. In one embodiment, a serial killing assay is a surrogate measure for CAR T cell persistence in vivo.

[3] = 100 ng/ml IL-6 + drug 10 uM, 20 min, MSD signal (No stim. 689, IL-6 alone 33641)
[4] = 100 ng/ml IL-6 + drug 10 uM, 20 min, MSD signal (No stim. 1964, IL-6 alone 15405)
[5] = 100 ng/ml IL-6 + drug 10 uM, 20 min, MSD signal (No stim. 9210, IL-6 alone 17743)
[6] = IL-6 + drug 0.125 uM, MSD signal (No stim. 689, IL-6 alone 33641)
[7] = IL-6 + drug 0.125 uM, MSD signal (No stim. 1964, IL-6 alone 15405)
[8] = IL-6 + drug 0.125 uM, MSD signal (No stim. 9210, IL-6 alone 17743)
[9] = IL-6 + drug 0.5 uM, MSD signal (No stim. 689, IL-6 alone 33641)
[10] = IL-6 + drug 0.5 uM, MSD signal (No stim. 1964, IL-6 alone 15405)
[11] = IL-6 + drug 0.5 uM, MSD signal (No stim. 9210, IL-6 alone 17743)
[12] = IL-6 + drug 1 uM, MSD signal (No stim. 689, IL-6 alone 33641)
[13] = IL-6 + drug 1 uM, MSD signal (No stim. 1964, IL-6 alone 15405)
[14] = IL-6 + drug 1 uM, MSD signal (No stim. 9210, IL-6 alone 17743)
[15] = IL-6 + drug 5 uM, MSD signal (No stim. 689, IL-6 alone 33641)
[16] = IL-6 + drug 5 uM, MSD signal (No stim. 1964, IL-6 alone 15405)
[17] = IL-6 + drug 5 uM, MSD signal (No stim. 9210, IL-6 alone 17743)
[18] = lower dose titration, IL-6 + drug 3.125 nM, MSD signal (No stim. 123, IL-6 alone 5767)
[19] = lower dose titration, IL-6 + drug 3.125 nM, MSD signal (No stim. 281, IL-6 alone 3624)
[20] = lower dose titration, IL-6 + drug 3.125 nM, MSD signal (No stim. 324, IL-6 alone 2352)
[21] = lower dose titration, IL-6 + drug 6.25 nM, MSD signal (No stim. 123, IL-6 alone 5767)
[22] = lower dose titration, IL-6 + drug 6.25 nM, MSD signal (No stim. 281, IL-6 alone 3624)
[23] = lower dose titration, IL-6 + drug 6.25 nM, MSD signal (No stim. 324, IL-6 alone 2352)
[24] = lower dose titration, IL-6 + drug 12.5 nM, MSD signal (No stim. 123, IL-6 alone 5767)
[25] = lower dose titration, IL-6 + drug 12.5 nM, MSD signal (No stim. 281, IL-6 alone 3624)
[26] = lower dose titration, IL-6 + drug 12.5 nM, MSD signal (No stim. 324, IL-6 alone 2352)
[27] = lower dose titration, IL-6 + drug 25 nM, MSD signal (No stim. 123, IL-6 alone 5767)
[28] = lower dose titration, IL-6 + drug 25 nM, MSD signal (No stim. 281, IL-6 alone 3624)
[29] = lower dose titration, IL-6 + drug 25 nM, MSD signal (No stim. 324, IL-6 alone 2352)
[30] = lower dose titration, IL-6 + drug 50 nM, MSD signal (No stim. 123, IL-6 alone 5767)
[31] = lower dose titration, IL-6 + drug 50 nM, MSD signal (No stim. 281, IL-6 alone 3624)
[32] = lower dose titration, IL-6 + drug 50 nM, MSD signal (No stim. 324, IL-6 alone 2352)
[33] = lower dose titration, IL-6 + drug 100 nM, MSD signal (No stim. 123, IL-6 alone 5767)
[34] = lower dose titration, IL-6 + drug 100 nM, MSD signal (No stim. 281, IL-6 alone 3624)
[35] = lower dose titration, IL-6 + drug 100 nM, MSD signal (No stim. 324, IL-6 alone 2352)

C[C@@H]1CCN(C(=O)CC#N)C[C@@H]1N(C)c1ncnc2[nH]ccc12 [tofacitinib]
pSTAT3 [1, 3]: 2238
pSTAT4 [1, 4]: 2159
pSTAT5 [1, 5]: 1431
pSTAT3 [1, 6]: 7733
pSTAT4 [1, 7]: 3698
pSTAT5 [1, 8]: 2424
pSTAT3 [1, 9]: 3382
pSTAT4 [1, 10]: 2503
pSTAT5 [1, 11]: 1756
pSTAT3 [1, 12]: 2301
pSTAT4 [1, 13]: 2259
pSTAT5 [1, 14]: 1528
pSTAT3 [1, 15]: 2165
pSTAT4 [1, 16]: 2033
pSTAT5 [1, 17]: 1421
effect on phosphorylated-STAT-1, STAT-3 and STAT-5 levels ([1]; IL-6 stimulation 100 ng/ml, 20 minutes, 10 μM to 0.125 μM): reduction of phosphorylated-STAT-1, STAT-3 and STAT-5 levels in a dose-responsive manner
pSTAT3 [1, 18]: 5917
pSTAT4 [1, 19]: 3525
pSTAT5 [1, 20]: 1810
pSTAT3 [1, 21]: 4586
pSTAT4 [1, 22]: 3455
pSTAT5 [1, 23]: 1808
pSTAT3 [1, 24]: 3998
pSTAT4 [1, 25]: 2304
pSTAT5 [1, 26]: 1187
pSTAT3 [1, 27]: 3115
pSTAT4 [1, 28]: 1982
pSTAT5 [1, 29]: 914
pSTAT3 [1, 30]: 2148
pSTAT4 [1, 31]: 1499
pSTAT5 [1, 32]: 703
pSTAT3 [1, 33]: 1006
pSTAT4 [1, 34]: 918
pSTAT5 [1, 35]: 513
viability at 0 day, 50 nM (in vitro): 75%
viability at 0 day, 100 nM (in vitro): 75%
viability at 4 day, 50 nM (in vitro): 67.7%
viability at 4 day, 100 nM (in vitro): 61.8%
viability at 8 day, 50 nM (in vitro): 74.2%
viability at 8 day, 100 nM (in vitro): 64.7%
viability at 12 day, 50 nM (in vitro): 80.1%
viability at 12 day, 100 nM (in vitro): 85.2%

C[C@@H]1C[C@H]2[C@@H]3CCC4=CC(=O)C=C[C@]4(C)[C@@]3(F)[C@@H](O)C[C@]2(C)[C@@]1(O)C(=O)CO [dexamethasone]
pSTAT3 [1, 3]: 25688
pSTAT4 [1, 4]: 11588
pSTAT5 [1, 5]: 14850
pSTAT3 [1, 6]: 26776
pSTAT4 [1, 7]: 14052
pSTAT5 [1, 8]: 16019
pSTAT3 [1, 9]: 28004
pSTAT4 [1, 10]: 15286
pSTAT5 [1, 11]: 18936
pSTAT3 [1, 12]: 27312
pSTAT4 [1, 13]: 15357
pSTAT5 [1, 14]: 18209
pSTAT3 [1, 15]: 24869
pSTAT4 [1, 16]: 11925
pSTAT5 [1, 17]: 15761
viability at 0 day, 50 nM (in vitro; CAR-T cells): 75%
viability at 0 day, 100 nM (in vitro; CAR-T cells): 75%
viability at 4 day, 50 nM (in vitro; CAR-T cells): 65.9%
viability at 4 day, 100 nM (in vitro; CAR-T cells): 52.8%
viability at 8 day, 50 nM (in vitro; CAR-T cells): 53.8%
viability at 8 day, 100 nM (in vitro; CAR-T cells): 56.6%
viability at 12 day, 50 nM (in vitro; CAR-T cells): 67.8%
viability at 12 day, 100 nM (in vitro; CAR-T cells): 56.5%

CCS(=O)(=O)N1CC(CC#N)(n2cc(-c3ncnc4[nH]ccc34)cn2)C1 [baricitinib]
pSTAT3 [1, 18]: 5208
pSTAT4 [1, 19]: 2961
pSTAT5 [1, 20]: 1408
pSTAT3 [1, 21]: 2798
pSTAT4 [1, 22]: 2801
pSTAT5 [1, 23]: 1243
pSTAT3 [1, 24]: 2528
pSTAT4 [1, 25]: 1741
pSTAT5 [1, 26]: 827
pSTAT3 [1, 27]: 1441
pSTAT4 [1, 28]: 1359
pSTAT5 [1, 29]: 710
pSTAT3 [1, 30]: 702
pSTAT4 [1, 31]: 1059
pSTAT5 [1, 32]: 586
pSTAT3 [1, 33]: 288
pSTAT4 [1, 34]: 690
pSTAT5 [1, 35]: 471
viability at 0 day, 5 nM (in vitro; CAR-T cells): 75%
viability at 0 day, 10 nM (in vitro; CAR-T cells): 75%
viability at 4 day, 5 nM (in vitro; CAR-T cells): 67.4%
viability at 4 day, 10 nM (in vitro; CAR-T cells): 58.9%
viability at 8 day, 5 nM (in vitro; CAR-T cells): 72.7%
viability at 12 day, 5 nM (in vitro; CAR-T cells): 82.3%
viability at 12 day, 10 nM (in vitro; CAR-T cells): 71.2%
impact on CAR-T serial killing (percent cytotoxicity) [2]: negative impacts

— patent US12252701B2, “Chimeric antigen receptor T cell therapy” (KITE PHARMA, INC., priority 2020, dated 2025)
